Where a name gives a salt, the structure may show the parent alone. Each block holds one compound with its values, some of them ahead of it. The source made the active and inactive calls.
Tests used:
[1] = target: T1, Probable nicotinate-nucleotide adenylyltransferase (Staphylococcus aureus (strain N315), UniProt P65502); assay type: functional, Staphylococcus aureus subsp. aureus N315;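 for IC50 Mean: confirmatory dose-response retesting of NadD inhibitor hits first found in an ultra-high-throughput screen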
[2] = target: Induced myeloid leukemia cell differentiation protein Mcl-1 (Homo sapiens, UniProt Q07820); assay type: functional
Chain of Induced myeloid leukemia cell differentiation protein Mcl-1 (Q07820 whole entry, the tested form may be a part): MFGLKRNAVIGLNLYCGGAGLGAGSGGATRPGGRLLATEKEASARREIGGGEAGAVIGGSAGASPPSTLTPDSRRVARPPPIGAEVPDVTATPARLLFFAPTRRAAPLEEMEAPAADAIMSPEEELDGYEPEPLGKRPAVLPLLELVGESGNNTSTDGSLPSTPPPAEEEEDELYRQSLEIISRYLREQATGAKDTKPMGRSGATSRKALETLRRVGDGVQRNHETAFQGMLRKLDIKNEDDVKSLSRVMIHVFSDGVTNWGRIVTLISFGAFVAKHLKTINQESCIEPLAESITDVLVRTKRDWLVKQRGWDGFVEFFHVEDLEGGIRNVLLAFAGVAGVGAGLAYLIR

[3] = target: T2, Carboxy-terminal domain RNA polymerase II polypeptide A small phosphatase 1 (Homo sapiens, UniProt Q9GZU7); test: inhibitors of CTDSP1, concentration-response testing, biochemical assay, absorbance-based, actives from ultra-high-throughput screening (AID 540297); assay type: functional
T2 sequence (Q9GZU7 whole entry): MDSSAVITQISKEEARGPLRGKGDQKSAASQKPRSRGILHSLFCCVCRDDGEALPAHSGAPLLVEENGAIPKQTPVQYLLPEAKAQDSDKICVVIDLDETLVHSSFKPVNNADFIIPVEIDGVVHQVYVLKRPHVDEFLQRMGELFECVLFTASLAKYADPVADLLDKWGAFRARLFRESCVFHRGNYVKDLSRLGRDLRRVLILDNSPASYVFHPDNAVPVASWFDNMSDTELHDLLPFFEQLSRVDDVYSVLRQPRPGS

[4] = target: T1, Probable nicotinate-nucleotide adenylyltransferase; assay type: functional, Staphylococcus aureus subsp. aureus N315; settings: read-out: IC50_Mean
[5] = target: DNA (cytosine-5)-methyltransferase 1 (Homo sapiens, UniProt P26358); test: DNMT1 methyltransferase inhibitors, confirmation, biochemical, fluorescent molecular beacon (AID 602386); assay type: functional
Chain of DNA (cytosine-5)-methyltransferase 1 (P26358 whole entry): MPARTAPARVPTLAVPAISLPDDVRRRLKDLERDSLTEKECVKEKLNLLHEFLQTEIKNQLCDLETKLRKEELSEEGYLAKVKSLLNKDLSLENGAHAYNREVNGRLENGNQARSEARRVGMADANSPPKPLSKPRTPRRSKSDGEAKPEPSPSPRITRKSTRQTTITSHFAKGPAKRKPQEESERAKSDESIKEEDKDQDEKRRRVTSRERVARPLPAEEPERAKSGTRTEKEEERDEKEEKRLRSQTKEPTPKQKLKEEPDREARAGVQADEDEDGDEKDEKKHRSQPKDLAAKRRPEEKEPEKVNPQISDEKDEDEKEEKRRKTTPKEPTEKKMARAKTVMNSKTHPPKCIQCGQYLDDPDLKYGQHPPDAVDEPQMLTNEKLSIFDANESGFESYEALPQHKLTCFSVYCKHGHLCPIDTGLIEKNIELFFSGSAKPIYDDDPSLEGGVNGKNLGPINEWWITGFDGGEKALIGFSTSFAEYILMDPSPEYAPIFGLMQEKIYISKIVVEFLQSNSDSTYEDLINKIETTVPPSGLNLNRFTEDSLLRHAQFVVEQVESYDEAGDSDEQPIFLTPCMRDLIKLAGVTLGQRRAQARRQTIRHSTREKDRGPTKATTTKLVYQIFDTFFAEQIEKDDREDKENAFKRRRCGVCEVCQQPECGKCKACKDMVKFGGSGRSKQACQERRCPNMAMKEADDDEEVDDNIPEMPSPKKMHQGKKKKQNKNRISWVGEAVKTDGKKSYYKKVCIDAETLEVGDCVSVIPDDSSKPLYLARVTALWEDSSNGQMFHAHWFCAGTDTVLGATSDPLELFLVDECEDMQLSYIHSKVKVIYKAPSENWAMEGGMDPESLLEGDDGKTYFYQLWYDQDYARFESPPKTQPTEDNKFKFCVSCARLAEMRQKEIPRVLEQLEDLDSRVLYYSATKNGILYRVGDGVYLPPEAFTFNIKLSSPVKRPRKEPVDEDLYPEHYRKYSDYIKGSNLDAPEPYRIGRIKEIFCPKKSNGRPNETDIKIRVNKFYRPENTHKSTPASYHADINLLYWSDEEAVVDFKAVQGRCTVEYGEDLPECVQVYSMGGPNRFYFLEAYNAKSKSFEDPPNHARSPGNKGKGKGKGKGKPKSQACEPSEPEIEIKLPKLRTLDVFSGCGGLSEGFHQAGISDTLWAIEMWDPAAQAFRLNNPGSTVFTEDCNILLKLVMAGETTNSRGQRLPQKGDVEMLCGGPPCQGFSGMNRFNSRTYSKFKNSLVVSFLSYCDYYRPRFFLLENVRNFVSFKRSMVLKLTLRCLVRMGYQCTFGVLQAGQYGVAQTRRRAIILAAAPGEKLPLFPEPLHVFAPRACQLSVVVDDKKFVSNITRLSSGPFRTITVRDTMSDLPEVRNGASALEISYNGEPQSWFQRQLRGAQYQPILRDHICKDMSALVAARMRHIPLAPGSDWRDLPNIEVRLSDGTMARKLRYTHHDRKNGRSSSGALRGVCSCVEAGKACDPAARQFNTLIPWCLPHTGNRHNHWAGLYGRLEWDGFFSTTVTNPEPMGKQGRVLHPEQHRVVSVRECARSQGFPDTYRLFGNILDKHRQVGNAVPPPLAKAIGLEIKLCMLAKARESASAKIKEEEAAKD

[6] = NIH-3T3 fibroblast cytotoxicity, dose response, cytotoxicity control, cell-based, fluorescence, Alamar Blue, secondary assay (AID 2327); assay type: functional;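 note: NIH-3T3 mouse fibroblasts cultured with fluconazole at 8 µg/mL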
[7] = target: T3, Mitochondrial peptide methionine sulfoxide reductase (Bos taurus, UniProt P54149); test: Absorbance-based biochemical high throughput dose response assay for activators of Methionine sulfoxide reductase A (MsrA).; assay type: functional
T3 sequence (P54149 whole entry): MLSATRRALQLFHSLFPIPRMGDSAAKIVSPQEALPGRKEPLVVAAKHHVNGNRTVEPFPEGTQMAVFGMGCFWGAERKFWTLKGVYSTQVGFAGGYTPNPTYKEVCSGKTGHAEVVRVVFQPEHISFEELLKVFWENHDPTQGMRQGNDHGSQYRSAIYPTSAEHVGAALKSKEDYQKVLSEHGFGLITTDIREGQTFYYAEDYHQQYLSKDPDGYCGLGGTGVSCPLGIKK

[8] = C. albicans growth with fluconazole, confirmation, fluorescence, retest (AID 2467); assay type: functional, cell-based
[9] = target: T4, High affinity choline transporter 1 (Homo sapiens, UniProt Q9GZV3); test: CHT inhibitors, dose response, cell-based, 5-point CRC, membrane potential dye (AID 504840); assay type: functional
T4 sequence (Q9GZV3 whole entry): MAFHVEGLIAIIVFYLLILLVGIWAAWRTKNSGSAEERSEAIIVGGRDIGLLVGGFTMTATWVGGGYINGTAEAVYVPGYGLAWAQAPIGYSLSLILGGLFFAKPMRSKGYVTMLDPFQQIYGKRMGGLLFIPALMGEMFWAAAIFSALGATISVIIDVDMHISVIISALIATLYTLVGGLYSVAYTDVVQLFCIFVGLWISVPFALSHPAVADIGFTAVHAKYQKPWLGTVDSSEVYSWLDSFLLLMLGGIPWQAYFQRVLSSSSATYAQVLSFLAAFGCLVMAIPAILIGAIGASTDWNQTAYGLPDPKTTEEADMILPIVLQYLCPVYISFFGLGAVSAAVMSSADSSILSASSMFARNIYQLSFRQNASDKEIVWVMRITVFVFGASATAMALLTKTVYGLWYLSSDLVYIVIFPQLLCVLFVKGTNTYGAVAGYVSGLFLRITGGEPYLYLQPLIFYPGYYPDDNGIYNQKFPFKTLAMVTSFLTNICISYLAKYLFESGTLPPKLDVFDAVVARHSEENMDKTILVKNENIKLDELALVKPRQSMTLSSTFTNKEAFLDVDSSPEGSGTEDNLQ

[10] = target: T4, High affinity choline transporter 1; test: CHT inhibitors, dose response, cell-based, 10-point CRC, membrane potential dye (AID 588401); assay type: functional;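 note: membrane potential dye fluorescence of choline-evoked depolarization via CHT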
[11] = target: T5, Sentrin-specific protease 1 (Homo sapiens, UniProt Q9P0U3); test: potency of human SENP1 inhibitors, dose response, biochemical, kinetic FRET (AID 651697); assay type: functional; settings: read-out: IC50_Mean
T5 sequence (Q9P0U3 whole entry, the tested form may be a part): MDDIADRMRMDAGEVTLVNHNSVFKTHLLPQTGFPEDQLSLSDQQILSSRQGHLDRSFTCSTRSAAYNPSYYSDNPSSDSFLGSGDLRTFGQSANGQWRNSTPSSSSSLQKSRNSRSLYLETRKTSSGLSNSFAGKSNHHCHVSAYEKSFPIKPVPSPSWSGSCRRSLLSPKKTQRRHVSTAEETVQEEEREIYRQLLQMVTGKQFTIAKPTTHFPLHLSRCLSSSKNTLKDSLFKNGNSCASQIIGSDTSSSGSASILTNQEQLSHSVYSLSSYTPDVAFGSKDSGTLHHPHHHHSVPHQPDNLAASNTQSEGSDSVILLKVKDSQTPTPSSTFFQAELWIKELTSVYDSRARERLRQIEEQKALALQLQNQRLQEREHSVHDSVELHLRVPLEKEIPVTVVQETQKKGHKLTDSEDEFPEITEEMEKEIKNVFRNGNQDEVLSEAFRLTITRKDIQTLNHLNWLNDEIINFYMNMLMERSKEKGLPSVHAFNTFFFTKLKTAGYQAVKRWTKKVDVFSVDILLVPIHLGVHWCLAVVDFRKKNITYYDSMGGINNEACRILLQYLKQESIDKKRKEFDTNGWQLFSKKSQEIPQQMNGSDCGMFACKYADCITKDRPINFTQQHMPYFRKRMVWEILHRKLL

[12] = target: T5, Sentrin-specific protease 1; test: Dose response confirmation of small molecule inhibitors of the catalytic domain of the SUMO protease, SENP1 in a FRET assay.; assay type: functional; settings: read-out: IC50_Mean
[13] = target: T6, Small ubiquitin-related modifier 1 (Homo sapiens, UniProt P63165); test: inhibitors of SUMO1 peptide binding, dose response, biochemical, fluorescence polarization, uHTS hits (AID 624382); assay type: functional; settings: read-out: IC50_Mean
T6 sequence (P63165 whole entry): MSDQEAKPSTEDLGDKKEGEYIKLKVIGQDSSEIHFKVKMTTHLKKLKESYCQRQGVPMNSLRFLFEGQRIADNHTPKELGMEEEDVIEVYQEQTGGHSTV

[14] = target: T6, Small ubiquitin-related modifier 1; test: inhibitors of SUMO1 partner interactions, dose response, biochemical, FRET (AID 624383); assay type: functional; settings: read-out: IC50_Mean
[15] = AlphaScreen signal interference compounds, dose response, artefact control for ARNT-TACC3 interaction inhibitor project, biochemical, luminescence, cherry-pick (AID 651705); assay type: functional;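 note: AlphaScreen bead proximity signal that flags compounds interfering with the detection technology; potency reflects signal decrease which marks the compound as an assay artifact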
[16] = target: Nuclear receptor subfamily 5 group A member 2 (Homo sapiens, UniProt O00482); assay type: functional, cell-based;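 note: HEK293T cells transfected with LRH-1 and a StAR promoter luciferase reporter; potency for inhibitors that lower LRH-1 driven reporter light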
Steroidogenic factor 1 = Steroidogenic factor 1 (Homo sapiens, UniProt Q13285); test: Counterscreen for inverse agonists of the liver receptor homolog-1 (LRH-1; NR5A2): Luminescence-based cell-based high throughput dose response assay to identify inverse agonists of the Steroidogenic Factor 1 Nuclear Receptor (SF1; NR5A1).; assay type: functional
[17] = StAR promoter reporter inhibition counter-screen, dose response, counter-screen for LRH-1 inverse agonist project, cell-based, luminescence, luciferase reporter (AID 651969); assay type: functional
[18] = target: Serine/threonine-protein kinase pim-1 (Homo sapiens, UniProt P11309); assay type: functional
Chain of Serine/threonine-protein kinase pim-1 (P11309 whole entry): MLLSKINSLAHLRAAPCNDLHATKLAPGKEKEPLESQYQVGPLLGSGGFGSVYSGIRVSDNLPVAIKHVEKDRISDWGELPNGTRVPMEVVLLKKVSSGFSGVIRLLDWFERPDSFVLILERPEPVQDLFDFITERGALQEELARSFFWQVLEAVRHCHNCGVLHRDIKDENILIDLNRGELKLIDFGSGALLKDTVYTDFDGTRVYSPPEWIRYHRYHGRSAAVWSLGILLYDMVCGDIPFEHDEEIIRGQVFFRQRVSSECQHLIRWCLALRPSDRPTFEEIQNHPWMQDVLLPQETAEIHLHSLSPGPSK

[19] = target: Interleukin-1 receptor-associated kinase 4 (Homo sapiens, UniProt Q9NWZ3); assay type: functional
Chain of Interleukin-1 receptor-associated kinase 4 (Q9NWZ3 whole entry): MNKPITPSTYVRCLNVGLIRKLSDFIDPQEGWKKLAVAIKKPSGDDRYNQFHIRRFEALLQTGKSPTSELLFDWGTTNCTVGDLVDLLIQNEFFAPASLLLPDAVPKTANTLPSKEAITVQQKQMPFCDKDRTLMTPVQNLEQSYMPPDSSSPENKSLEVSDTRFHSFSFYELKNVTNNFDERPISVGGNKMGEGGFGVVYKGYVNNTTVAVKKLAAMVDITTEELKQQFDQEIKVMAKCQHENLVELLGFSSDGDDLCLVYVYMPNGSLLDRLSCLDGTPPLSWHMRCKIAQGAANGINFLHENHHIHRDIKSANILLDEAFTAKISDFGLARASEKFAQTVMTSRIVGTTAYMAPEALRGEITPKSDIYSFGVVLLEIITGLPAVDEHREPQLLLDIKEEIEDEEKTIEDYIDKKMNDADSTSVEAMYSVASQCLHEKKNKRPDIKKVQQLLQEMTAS

[20] = target: cAMP-dependent protein kinase catalytic subunit alpha (Homo sapiens, UniProt P17612); assay type: functional
[21] = target: Cell division cycle 7-related protein kinase (Homo sapiens, UniProt O00311); assay type: functional;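 note: value obtained from a kinome-wide kinase panel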
Chain of Cell division cycle 7-related protein kinase (O00311 whole entry): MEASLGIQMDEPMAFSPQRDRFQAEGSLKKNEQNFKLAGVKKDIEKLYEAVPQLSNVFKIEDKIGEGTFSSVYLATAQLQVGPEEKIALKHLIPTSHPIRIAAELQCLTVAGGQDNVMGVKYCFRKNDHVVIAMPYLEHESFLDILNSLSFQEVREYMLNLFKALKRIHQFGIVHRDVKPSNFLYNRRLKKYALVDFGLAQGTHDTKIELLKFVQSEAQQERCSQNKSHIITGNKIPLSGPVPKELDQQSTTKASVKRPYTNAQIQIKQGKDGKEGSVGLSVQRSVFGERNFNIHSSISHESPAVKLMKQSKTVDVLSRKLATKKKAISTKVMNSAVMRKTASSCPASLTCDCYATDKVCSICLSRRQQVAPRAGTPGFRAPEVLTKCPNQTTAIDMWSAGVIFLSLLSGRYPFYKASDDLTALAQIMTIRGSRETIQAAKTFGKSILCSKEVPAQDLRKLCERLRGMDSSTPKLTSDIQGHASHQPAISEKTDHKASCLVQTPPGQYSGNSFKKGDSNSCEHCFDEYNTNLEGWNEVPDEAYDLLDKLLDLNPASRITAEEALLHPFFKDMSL

[22] = target: Dual specificity protein kinase CLK4 (Homo sapiens, UniProt Q9HAZ1); assay type: functional
Chain of Dual specificity protein kinase CLK4 (Q9HAZ1 whole entry): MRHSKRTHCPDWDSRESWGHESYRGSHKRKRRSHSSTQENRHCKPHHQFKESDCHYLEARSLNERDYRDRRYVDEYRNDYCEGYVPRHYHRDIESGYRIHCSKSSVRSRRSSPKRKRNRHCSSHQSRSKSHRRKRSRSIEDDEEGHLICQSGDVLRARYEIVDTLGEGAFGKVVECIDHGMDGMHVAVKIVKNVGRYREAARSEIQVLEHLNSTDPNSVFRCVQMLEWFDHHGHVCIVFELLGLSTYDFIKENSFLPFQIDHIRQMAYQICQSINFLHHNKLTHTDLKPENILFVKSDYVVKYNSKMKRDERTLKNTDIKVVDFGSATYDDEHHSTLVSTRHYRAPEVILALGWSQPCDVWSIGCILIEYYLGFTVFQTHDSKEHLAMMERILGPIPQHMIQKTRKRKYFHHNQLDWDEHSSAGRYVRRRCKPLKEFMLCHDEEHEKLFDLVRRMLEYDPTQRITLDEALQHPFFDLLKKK

[23] = target: Homeodomain-interacting protein kinase 2 (Homo sapiens, UniProt Q9H2X6); assay type: functional;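 note: measured within a kinome-wide kinase profiling panel, HIPK2 being one panel member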
[24] = target: Glycogen synthase kinase-3 beta (Homo sapiens, UniProt P49841); assay type: functional;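 note: value comes from a broad kinome profiling panel, with GSK3B as the panel member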
Chain of Glycogen synthase kinase-3 beta (P49841 whole entry): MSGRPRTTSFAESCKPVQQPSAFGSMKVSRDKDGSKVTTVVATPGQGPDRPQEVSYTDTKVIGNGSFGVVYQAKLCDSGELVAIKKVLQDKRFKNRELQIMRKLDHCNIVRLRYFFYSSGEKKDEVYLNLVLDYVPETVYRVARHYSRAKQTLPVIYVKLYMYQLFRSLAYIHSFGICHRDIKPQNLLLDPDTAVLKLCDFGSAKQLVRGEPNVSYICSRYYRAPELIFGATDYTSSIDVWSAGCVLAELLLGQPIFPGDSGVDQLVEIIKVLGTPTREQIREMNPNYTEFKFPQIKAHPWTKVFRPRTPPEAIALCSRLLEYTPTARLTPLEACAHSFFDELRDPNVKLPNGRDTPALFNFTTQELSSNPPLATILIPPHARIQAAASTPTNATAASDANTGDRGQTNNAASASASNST

[25] = target: T7, DNA repair protein RAD52 homolog (Homo sapiens, UniProt P43351); assay type: functional, biochemical
T7 sequence (P43351 whole entry): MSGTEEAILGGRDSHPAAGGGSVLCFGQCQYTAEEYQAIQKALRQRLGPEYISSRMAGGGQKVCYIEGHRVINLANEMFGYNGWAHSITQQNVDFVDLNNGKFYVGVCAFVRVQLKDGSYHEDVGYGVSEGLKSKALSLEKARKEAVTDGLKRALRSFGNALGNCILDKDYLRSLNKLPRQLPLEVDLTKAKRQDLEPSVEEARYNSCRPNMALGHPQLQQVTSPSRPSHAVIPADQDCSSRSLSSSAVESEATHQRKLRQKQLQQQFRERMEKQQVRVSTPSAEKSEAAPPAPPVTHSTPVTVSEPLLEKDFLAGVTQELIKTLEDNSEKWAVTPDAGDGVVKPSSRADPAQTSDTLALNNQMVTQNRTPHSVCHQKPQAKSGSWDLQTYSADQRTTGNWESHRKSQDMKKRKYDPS

[26] = target: DNA repair and recombination protein RAD54-like (Homo sapiens, UniProt Q92698); test: inhibitors of human RAD54 branch migration, confirmation, biochemical, fluorescence, cherry-picked samples, dose series (AID 651657); assay type: functional
[27] = target: T8, Tyrosine-protein phosphatase non-receptor type 22 (Homo sapiens, UniProt Q9Y2R2); test: LYP phosphatase inhibition for selectivity, dose response, selectivity assay for LMPTP inhibitor project, biochemical, fluorescence, LYP catalytic domain (AID 652006); assay type: functional; settings: read-out: IC50_Mean
T8 sequence (Q9Y2R2 whole entry): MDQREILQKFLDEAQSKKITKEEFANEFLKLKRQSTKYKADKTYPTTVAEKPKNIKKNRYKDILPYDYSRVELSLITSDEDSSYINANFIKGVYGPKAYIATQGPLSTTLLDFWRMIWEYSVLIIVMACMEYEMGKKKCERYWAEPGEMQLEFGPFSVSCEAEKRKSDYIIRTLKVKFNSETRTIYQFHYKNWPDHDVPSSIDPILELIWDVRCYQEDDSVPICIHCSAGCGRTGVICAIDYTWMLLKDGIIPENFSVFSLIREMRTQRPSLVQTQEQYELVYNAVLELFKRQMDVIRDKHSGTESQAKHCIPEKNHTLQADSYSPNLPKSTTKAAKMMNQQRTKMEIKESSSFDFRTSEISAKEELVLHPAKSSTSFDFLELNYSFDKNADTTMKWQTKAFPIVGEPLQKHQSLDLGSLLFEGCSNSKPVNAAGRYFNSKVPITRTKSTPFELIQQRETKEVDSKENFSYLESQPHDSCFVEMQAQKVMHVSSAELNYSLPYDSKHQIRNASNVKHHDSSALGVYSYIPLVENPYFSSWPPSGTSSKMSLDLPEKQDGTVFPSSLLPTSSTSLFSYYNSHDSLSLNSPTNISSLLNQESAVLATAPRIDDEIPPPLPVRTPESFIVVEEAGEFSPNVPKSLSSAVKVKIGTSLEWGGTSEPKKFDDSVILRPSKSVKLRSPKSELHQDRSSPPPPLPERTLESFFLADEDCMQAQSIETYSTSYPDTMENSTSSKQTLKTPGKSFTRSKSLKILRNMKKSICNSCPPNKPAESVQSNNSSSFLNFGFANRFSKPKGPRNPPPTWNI

[28] = target: T9, Low molecular weight phosphotyrosine protein phosphatase (Homo sapiens, UniProt P24666); assay type: functional; settings: read-out: IC50_Mean;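 note: Dose-response confirmation assay measuring inhibition of LMPTP enzyme activity by fluorescence intensity read-out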
T9 sequence (P24666 whole entry): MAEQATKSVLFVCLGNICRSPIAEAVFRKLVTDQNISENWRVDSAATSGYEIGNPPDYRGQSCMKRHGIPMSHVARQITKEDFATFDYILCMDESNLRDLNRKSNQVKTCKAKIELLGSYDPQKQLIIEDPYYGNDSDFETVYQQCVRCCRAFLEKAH

IC50 [1]: 6.76 µM (active)
IC50 [2]: 2.97 µM (active)
IC50 [3]: 2.52 µM (active)
IC50 [4]: 15.9 µM (active)
IC50 [5]: 5.78 µM (active)
Structure (SMILES): Cn1c(N)c(C(=O)COC(=O)c2cc(-c3ccco3)nc3ccccc23)c(=O)n(C)c1=O

Structure (SMILES): Cc1ccc(C(=O)NC(=S)NNC(=O)CC#N)cc1
EC50 [6]: > 150 µM (inconclusive)
EC50 [7]: > 104 µM (inactive)
EC50 [8]: > 38 µM (not active)

IC50 [9]: 9.12 µM (active)
IC50 [10]: 7.23 µM (active)
Structure (SMILES): Cc1ccc(NC(=O)c2ccccc2NS(=O)(=O)c2ccc(Cl)s2)cc1S(=O)(=O)N1CCOCC1

IC50 [11]: 7.01 µM (active)
IC50 [12]: 8.78 µM (active)
Structure (SMILES): C=CCOc1c(Br)cc(/C=C2/N=C(S)N(C(C)=O)C2=O)cc1OC

Structure (SMILES): O=C(COC(=O)c1nc(Cl)ccc1Cl)Nc1ccc2[nH]c(O)nc2c1
IC50 [13]: > 66.6 µM (inactive)
IC50 [14]: 20.8 µM (inactive)

Structure (SMILES): CS(=O)(=O)c1cccc(-c2nnc(NC(=O)c3ccc(S(=O)(=O)N4CCCC4)cc3)o2)c1
AC50 [15]: 113 µM (active)

IC50 [9]: 7.46 µM (active)
IC50 [10]: 4.22 µM (active)
Structure (SMILES): COCC(C)N1CCC(Oc2cccc(C(=O)NCCc3ccccc3)c2)CC1 (stereo unspecified)

Structure (SMILES): Cc1cc(OCC(=O)NCc2cccnc2)c2c(C)c(C)c(=O)oc2c1
IC50 [16]: 2.88 µM (active)
IC50 (Steroidogenic factor 1): 2.35 µM (active)
IC50 [17]: 35.9 µM (inactive)

Ki [18]: 1 µM (active)
Ki [19]: 2.51 µM (active)
Ki [20]: 316 nM (active)
Ki [21]: 2 nM (active)
Ki [22]: 5.01 nM (active)
Ki [23]: 126 nM (active)
Ki [24]: 316 nM (active)
Structure (SMILES): CC(C)(O)CNc1cc(-c2c[nH]c3ncccc23)cc(Cl)n1

AC50 [25]: 4.86 µM (active)
AC50 [26]: 20.8 µM (active)
Structure (SMILES): CN(C)CCCNc1c2c(nc3ccccc13)CCC2

IC50 [27]: 24.7 µM (inactive)
IC50 [28]: 13.2 µM (active)
Structure (SMILES): COc1cccc2c1[C@@H]1CN(CCCCn3c(=O)[nH]c4c(sc5ncc(-c6ccccc6)nc54)c3=O)C[C@@H]1CO2 [FIDUXOSIN HYDROCHLORIDE]
